In US20090105261A1, “Novel substituted pyrazolo[1,5<I>A</I>]-1,3,5-Triazine derivatives and their analogues, pharmaceutical compositions containing same, use thereof as medicine and methods for preparing same” (GREENPHARMA, priority 2002, published 2009):
pIC50: −log10 of the molar value. Blank lines part the entries; values can stand above or below the compound they belong to.

Columns and labels:
[1] = biological target: T1, human phosphodiesterase type 2 (source: U-937 cells) (Homo sapiens, UniProt O00408); test: PDE2 inhibition, [3H]cAMP hydrolysis, scintillation; format: biochemical; conditions: substrate [3H]cAMP+cAMP 1 μM, 30 minutes at 30° C.
T1 construct: human phosphodiesterase type 2 (source: U-937 cells); endogenous in cells; host or cells: U-937 cells
Experimental: This novel family of compounds was tested as an inhibitor of human phosphodiesterase type 2 (source: U-937 cells) by following the method described by Torphy, T. J., Zhou, H. L. and Cieslinski, L. B. (J. Pharmacol. Exp. Ther., 1992, 263, 1195-1205). […] A quantitative measurement of the hydrolysis product [3H]-5′-AMP was determined by scintillation.

PDE6 (bovine) = biological target: T2, PDE6 (bovine) (Bos taurus, UniProt P11541+P23439); test: PDE6 inhibition (selectivity); format: biochemical; conditions: substrate [3H]cGMP+cGMP 2 μM
T2 sequence (P11541 2-856): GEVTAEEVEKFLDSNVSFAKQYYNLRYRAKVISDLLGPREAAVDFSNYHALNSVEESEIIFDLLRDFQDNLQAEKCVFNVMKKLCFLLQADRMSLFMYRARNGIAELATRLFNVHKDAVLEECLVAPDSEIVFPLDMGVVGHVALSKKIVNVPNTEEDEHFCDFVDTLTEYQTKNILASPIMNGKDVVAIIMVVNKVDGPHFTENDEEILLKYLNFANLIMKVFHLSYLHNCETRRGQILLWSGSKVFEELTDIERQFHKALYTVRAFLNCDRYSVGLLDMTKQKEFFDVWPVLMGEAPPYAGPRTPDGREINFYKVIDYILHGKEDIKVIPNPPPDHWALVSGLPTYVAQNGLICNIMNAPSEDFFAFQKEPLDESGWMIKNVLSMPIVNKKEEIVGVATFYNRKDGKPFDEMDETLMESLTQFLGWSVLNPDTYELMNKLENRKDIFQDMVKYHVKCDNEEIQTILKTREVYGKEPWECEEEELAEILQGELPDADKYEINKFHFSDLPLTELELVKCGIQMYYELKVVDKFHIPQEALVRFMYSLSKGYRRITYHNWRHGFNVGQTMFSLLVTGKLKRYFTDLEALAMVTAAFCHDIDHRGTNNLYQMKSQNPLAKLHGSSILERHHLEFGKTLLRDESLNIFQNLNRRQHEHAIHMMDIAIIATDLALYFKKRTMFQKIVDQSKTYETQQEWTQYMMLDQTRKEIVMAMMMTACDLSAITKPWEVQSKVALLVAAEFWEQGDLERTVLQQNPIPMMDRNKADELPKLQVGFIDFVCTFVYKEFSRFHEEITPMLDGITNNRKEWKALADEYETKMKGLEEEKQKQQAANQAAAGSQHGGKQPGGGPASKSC
T2 sequence (P23439 2-850): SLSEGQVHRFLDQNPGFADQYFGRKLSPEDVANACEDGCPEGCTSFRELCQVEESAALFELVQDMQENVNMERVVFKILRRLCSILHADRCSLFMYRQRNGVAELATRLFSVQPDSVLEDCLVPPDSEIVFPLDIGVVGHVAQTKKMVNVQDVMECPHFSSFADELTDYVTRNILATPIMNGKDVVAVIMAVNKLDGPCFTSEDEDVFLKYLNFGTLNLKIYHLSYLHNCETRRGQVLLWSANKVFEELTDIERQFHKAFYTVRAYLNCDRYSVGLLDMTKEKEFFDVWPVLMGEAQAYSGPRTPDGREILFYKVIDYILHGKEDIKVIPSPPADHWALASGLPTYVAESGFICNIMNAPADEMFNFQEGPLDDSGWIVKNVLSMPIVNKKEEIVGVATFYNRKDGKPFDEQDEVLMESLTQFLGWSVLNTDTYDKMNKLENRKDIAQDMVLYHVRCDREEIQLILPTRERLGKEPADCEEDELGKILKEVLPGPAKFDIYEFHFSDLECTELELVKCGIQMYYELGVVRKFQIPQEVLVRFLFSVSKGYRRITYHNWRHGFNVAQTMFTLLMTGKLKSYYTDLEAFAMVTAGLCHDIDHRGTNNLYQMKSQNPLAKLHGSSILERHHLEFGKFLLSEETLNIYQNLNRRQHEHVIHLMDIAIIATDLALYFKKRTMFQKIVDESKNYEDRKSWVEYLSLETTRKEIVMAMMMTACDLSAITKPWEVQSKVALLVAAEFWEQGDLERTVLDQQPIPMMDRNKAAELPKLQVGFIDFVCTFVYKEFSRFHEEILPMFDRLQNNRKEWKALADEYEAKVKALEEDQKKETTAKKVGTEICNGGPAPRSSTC
T2 sequence (P04972 1-87 partner): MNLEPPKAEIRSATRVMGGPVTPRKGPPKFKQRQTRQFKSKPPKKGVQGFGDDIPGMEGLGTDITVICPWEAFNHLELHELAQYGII
Description: (§1) cyclic nucleotide phosphodiesterases: PDE1 (bovine), PDE3 (human), PDE5 (human) and PDE6 (bovine), by following the methods described, respectively, by: (i, PDE1) Nicholson C. D., JACKMAN S. A. and WILKE R. (Brit. J. Pharmacol. 1989, 97, 889-897); (ii, PDE3 and PDE5) Weishaar, R. E., Burrows, S. D., Kobylarz, D. C., Quade, M. M. and Evans, D. B. (Biochem. Pharmacol., 1986, 35, 787-800); (iii PDE6) Ballard, A. S., Gingell, C. J., Tang, K., Turner, L. A., PRICE, M. E. (J. Urol, 1998, 159, 2164-2171). […] In the case of PDE5 and PDE 6, the substrate used is ([3H]cGMP+cGMP) at a concentration of 1 μM for PDE5 and 2 μM for PDE6. A quantitative measurement of the hydrolysis products [3H]-5′-AMP and [3H]-5′-GMP was determined by scintillation.

[2] = tested on: rat embryonic motoneuron cells; test: Apoptosis induced by elimination of BDNF in primary motoneuron cultures; format: cell-based; conditions: BDNF deprivation; concentration of 1 mM
Experimental: This test was carried out according to the protocol described by Estevez A. G. et al. (J. Neurosci. 1998, 18(3), 923-931). Briefly, when primary cultures of rat embryonic motoneuron cells are deprived of brain-derived neurotrophic factor (BDNF), an induction of neuronal nitric oxide synthase (NOS) was observed, resulting in the gradual death of the neurons by apoptosis: between 18 and 24 hours after having realized the biological preparation, more than 60% of the neurons die. In this model of induced apoptosis, the compound sodium 4-[[1-(oxo)-3-(4-oxopyrazolo[1,5-a]-1,3,5-triazin-8-yl)propyl]amino]benzoate (Ia5) protects more than 70% of the neurons at a concentration of 1 mM.

[3] = tested on: neurons cultured from fetal rat brain cortex; test: Neurite development in primary neuron cultures from fetal rat brain cortex; format: cell-based
Experimental: FIG. 1 represents the effect of the molecule Ia5 on neurons in culture. The neurons are cultured in Neurobasal medium from fetal rat brain cortex according to the procedure described in example 4 and are photographed without staining 17 days after being placed in culture. Culture A is a control culture without compound. The molecule Ia5 was added to culture B on the 8th day after the placing in culture, at a concentration of 50 μM.
Compounds according to the invention were evaluated for their neurotrophic properties. The idea is therefore to observe the behavior of a neuron cell culture in the absence and presence of such molecules. The molecule called Ia5 used during this example is a molecule having the general structure Ic1, where n=2 and m=0, in the form of a sodium salt.
The adult animals are mated and the female rats are separated the following day. After 16 days, the gestating rats undergo a cesarean and the fetuses are placed in a Petri dish 100 mm in diameter. They are transferred, under a laminar flow hood, into sterile medium. The fetuses are isolated by units and are dissected under a binocular magnifying lens in sterile medium. The cerebral cortex is isolated and placed in a tube containing Neurobasal medium without antibiotic. […] The cells are counted using a Mallassez hematometer in the presence of trypan blue in order to determine the cell viability. […]

motoneurons = test: Motoneuron apoptosis induced by peroxynitrite; format: cell-based; conditions: concentration of 1 mM
Experimental: This test was carried out according to the protocol described by Cassina P. et al. (J. Neurosci. Res. 2002 67(1): 21-9). Briefly, the oxidative stress mediated by nitric oxide and its toxic metabolite, peroxynitrite, has been associated with motoneuron degeneration, in particular in amyotrophic lateral sclerosis. The astrocytes of the spinal cord respond to extracellular concentrations of peroxynitrite by adopting a phenotype which is cytotoxic for the motoneurons. In this model of apoptosis induced by peroxynitrite, the compound sodium 4-[[1-(oxo)-3-(4-oxopyrazolo[1,5-a]-1,3,5-triazin-8-yl)propyl]amino]benzoate (Ia5) protects more than 60% of the neurons at a concentration of 1 mM.

TNFα = TNFα in supernatants of LPS-activated venous blood mononuclear cells (PBMCs), EIA; format: cell-based; conditions: PBMC, LPS 1 μg/ml, 24 hours incubation
Experimental: The compounds according to the invention were evaluated for their anti-inflammatory properties on venous blood mononuclear cells (PBMCs). More particularly, the cells were incubated for 24 hours in the presence of the molecule tested, after activation with lipopolysaccharide (LPS) (1 μg/ml) according to the protocol described by Schindler, R., Mancilla, J., Endres, S., Ghorbani, R., Clark, S. C. and Dinarello, C. A. (Blood, 1990, 75, 40-47). After incubation, the TNFα concentrations were measured in the culture supernatants by the EIA method.

PDE1 (bovine) = test: PDE1 inhibition (selectivity); format: biochemical; conditions: substrate [3H]cAMP+cAMP 1 μM, 30 minutes at 30° C.
Description: as §1

T1 sequence (O00408 whole entry): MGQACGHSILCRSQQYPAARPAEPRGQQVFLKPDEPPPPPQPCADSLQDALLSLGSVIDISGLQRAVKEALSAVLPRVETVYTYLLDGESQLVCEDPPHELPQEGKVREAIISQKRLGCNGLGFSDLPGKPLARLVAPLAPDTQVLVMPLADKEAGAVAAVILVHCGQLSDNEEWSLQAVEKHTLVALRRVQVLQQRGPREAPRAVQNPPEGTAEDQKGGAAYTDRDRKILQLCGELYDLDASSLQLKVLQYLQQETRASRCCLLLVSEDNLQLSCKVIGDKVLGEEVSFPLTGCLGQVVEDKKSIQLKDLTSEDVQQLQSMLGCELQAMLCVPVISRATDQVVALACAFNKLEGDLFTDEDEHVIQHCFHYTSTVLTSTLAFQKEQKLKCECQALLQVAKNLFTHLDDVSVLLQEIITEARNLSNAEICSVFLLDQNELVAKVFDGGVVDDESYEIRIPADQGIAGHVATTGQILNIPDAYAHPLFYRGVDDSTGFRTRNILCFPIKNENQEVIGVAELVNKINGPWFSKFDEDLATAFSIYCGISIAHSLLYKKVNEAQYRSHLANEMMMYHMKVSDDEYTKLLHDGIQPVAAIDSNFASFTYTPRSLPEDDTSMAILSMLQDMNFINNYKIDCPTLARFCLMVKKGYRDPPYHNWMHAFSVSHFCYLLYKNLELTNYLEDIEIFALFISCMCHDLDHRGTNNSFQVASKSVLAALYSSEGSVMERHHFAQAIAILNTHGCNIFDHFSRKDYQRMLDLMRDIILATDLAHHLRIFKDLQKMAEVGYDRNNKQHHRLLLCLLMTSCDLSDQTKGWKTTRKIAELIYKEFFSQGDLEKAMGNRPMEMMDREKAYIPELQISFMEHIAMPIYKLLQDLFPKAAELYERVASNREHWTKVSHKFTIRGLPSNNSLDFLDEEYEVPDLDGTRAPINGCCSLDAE

pIC50 [1]: 5.68
SMILES: CCCCCC[C@@H]([C@@H](C)O)n1cnc2c(N)ncnc21 (racemic) [EHNA]

melting point: 150 to 152 °C
SMILES: CCCc1nc(N(C)c2ccccc2)n2ncc(C(O)c3cccs3)c2n1 (stereo not shown) [Ib18, 8-[(Hydroxy)(2-thienyl)methyl]-4-(N-methyl-N-phenylamino)-2-n-propylpyrazolo[1,5-a]-1,3,5-triazine]

SMILES: CCCOc1ccccc1-c1nc2nn[nH]c2c(=O)[nH]1 [zaprinast]
pIC50 (PDE6 (bovine)): 6.42

SMILES: O=C(CCc1cnn2c(=O)[nH]cnc12)Nc1ccc(C(=O)[O-])cc1.[Na+] [Ia5, Sodium 4-[[1-(oxo)-3-(4-oxopyrazolo[1,5-a]-1,3,5-triazin-8-yl)propyl]amino]benzoate]
neurons protected [2]: more than 70%
neurite morphology in culture B compared with control A (FIG. 1) ([3]; 50 μM added on the 8th day, photographed 17 days after being placed in culture): thickening and an elongation of the neurites
neurite development compared with control cells ([3]; primary fetal rat cortex neurons, test molecule at 0.1, 1 and 10 μmol/l): greater neurite development than in the cells acting as control
neurons protected (motoneurons): more than 60%

pIC50 (TNFα): 5.34
SMILES: C[C@@H]1C[C@H]2[C@@H]3CCC4=CC(=O)C=C[C@]4(C)[C@@]3(F)[C@@H](O)C[C@]2(C)[C@@]1(O)C(=O)CO [dexamethasone]

pIC50 (PDE1 (bovine)): 5.54
SMILES: COCc1nc2c([nH]1)c(=O)n(C)c(=O)n2CC(C)C [8-methoxy-IBMX]

melting point: 142 to 144 °C
SMILES: CCCc1nc(N(C)c2ccccc2)n2ncc(C(O)c3ccoc3)c2n1 (stereo not shown) [Ib15, 8-[(3-Furyl)(hydroxy)methyl]-4-(N-methyl-N-phenylamino)-2-n-propylpyrazolo[1,5-a]-1,3,5-triazine]
